From PMC2867072 (Chemical communications (Cambridge, England), 2010)
Where two headings read alike, the source gives them in different places.

How the values were obtained:
MMP-9 (gelatinase-B) = MMP-9 (gelatinase-B) (Homo sapiens, UniProt P14780); test: fluorescence-based MMP-9 inhibition assay; type: biochemical; conditions: for inhibition at 1000 µM: read-out: percent inhibition of MMP-9
MMP-8 = MMP-8 (Homo sapiens, UniProt P22894); test: fluorescence-based MMP-8 inhibition assay; type: biochemical; conditions: MMP-8, fluorescence based assay
MMP-8, sequence (P22894 101-467, species assumed): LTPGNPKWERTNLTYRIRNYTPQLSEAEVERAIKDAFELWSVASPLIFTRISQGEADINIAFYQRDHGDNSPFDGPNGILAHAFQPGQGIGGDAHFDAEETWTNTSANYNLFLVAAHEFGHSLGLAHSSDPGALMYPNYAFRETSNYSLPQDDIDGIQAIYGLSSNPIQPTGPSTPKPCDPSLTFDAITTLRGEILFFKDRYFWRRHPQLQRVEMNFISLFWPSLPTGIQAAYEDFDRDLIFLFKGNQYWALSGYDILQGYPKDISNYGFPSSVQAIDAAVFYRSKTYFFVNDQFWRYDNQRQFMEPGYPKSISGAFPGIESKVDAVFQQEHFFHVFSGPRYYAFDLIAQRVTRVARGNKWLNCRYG

MMP-9 (gelatinase-B), sequence (P14780 94-707, species assumed): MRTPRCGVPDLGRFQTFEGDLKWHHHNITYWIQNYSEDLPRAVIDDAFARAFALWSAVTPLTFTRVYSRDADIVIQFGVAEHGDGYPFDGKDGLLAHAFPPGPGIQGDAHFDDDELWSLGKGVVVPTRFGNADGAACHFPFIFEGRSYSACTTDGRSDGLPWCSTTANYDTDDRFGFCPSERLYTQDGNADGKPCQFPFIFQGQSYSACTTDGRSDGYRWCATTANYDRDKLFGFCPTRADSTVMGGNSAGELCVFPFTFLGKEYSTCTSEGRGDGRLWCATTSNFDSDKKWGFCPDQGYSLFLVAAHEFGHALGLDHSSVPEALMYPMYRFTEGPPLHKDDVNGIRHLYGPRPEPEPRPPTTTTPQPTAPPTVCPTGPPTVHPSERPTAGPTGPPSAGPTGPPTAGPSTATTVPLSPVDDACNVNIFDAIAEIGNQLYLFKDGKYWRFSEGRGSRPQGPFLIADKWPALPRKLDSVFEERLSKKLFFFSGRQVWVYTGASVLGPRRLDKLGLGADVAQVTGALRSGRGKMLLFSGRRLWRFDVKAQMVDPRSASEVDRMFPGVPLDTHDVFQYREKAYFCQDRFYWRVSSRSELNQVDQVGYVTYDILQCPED

Row | IC50 (MMP-9 (gelatinase-B)) | inhibition at 1000 µM (MMP-9 (gelatinase-B)) | IC50 (MMP-8) | IC50 (MMP-9 (gelatinase-B); MMP-9, fluorescence based assay) | Compound
1 | 4030 µM | ~50% |  |  | Cc1occc(=O)c1O [Compound 3, 3-hydroxy-2-methyl-4-pyrone]
2 | 138 µM | ~50% |  |  | Cc1occc(=S)c1O [Compound 5, 3-hydroxy-2-methyl-4-pyrothione]
3 |  |  | 0.075 µM | 2.7 µM | O=C(NCc1ccc(-c2ccccc2)cc1)c1cccc(=O)n1O [Compound 7, 1,2-HOPO-2]
